According to patent US20020052325A1, “Anticonvulsant derivatives useful in maintaining weight loss” (priority 1999, published 2002):
Where two headings read alike, the source gives them in different places.

Legend:
[1] = overweight individuals; cited from earlier work
seizures [2] = details: animal model of kindled epilepsy; cited from earlier work
[3] = system: simple and complex partial seizures and secondarily generalized seizures; details: adjunctive therapy or monotherapy, human epilepsy; cited from earlier work
seizures [4] = details: several rodent models of epilepsy; cited from earlier work
[5] = Weight loss in patients treated with topiramate as adjunctive therapy in epilepsy; format: in vivo, human
Experimental: Further, carboxylic acids and aldehydes of the formulae RCOOH and RCHO may be reduced to compounds of the formula RCH2OH by standard reduction techniques, e.g. reaction with lithium aluminum hydride, sodium borohydride or borane-THF complex in an inert solvent such a diglyme, THF or toluene at a temperature of about 0° to 100° C., e.g. as described by H. O. House in “Modern Synthetic Reactions”, 2nd Ed., pages 45 to 144 (1972). In patients treated with topiramate as an adjunctive therapy in epilepsy (n=1319), mean weight loss of 4.6% of baseline weight was observed. The mean daily dosage of topiramate was 621.9 mg/day and the mean duration of dosing was 688.8 days. […] On topiramate treatment, there is gradual weight loss over time, with maintenance of the weight lost to 24 months of therapy; thus the mean percentage decrease in weight for all subjects (n=1319) was 4.6%, with similar weight loss maintained at one year (4.9%) and two years (4.5%) of treatment. This pattern is also seen in those patients with weight in excess of 100 kg at baseline (n=127), who lost a mean of 8.4% weight overall, with loss of 9.4% at one year and 9.9% at two years.

SMILES: CC1(C)O[C@@H]2[C@@H](CO[C@@]3(COS(N)(=O)=O)OC(C)(C)O[C@@H]23)O1 [topiramate, 2,3:4,5-bis-O-(1-methylethylidene)-β-D-fructopyranose sulfamate]
- weight reduction [1]: effectively reduce the weight
- seizure block (seizures [2]): effectively block seizures
- efficacy in treating seizures [3]: effective as adjunctive therapy or as monotherapy
- seizure block (seizures [4]): effectively block seizures
- mean percentage decrease in weight ([5]; all subjects (n=1319), at one year of treatment): 4.9%
- mean percentage decrease in weight ([5]; all subjects (n=1319), at two years of treatment): 4.5%
- mean weight loss of baseline weight ([5]; all subjects (n=1319), overall, mean daily dosage 621.9 mg/day, mean duration of dosing 688.8 days): 4.6%
- mean decrease in weight ([5]; subjects >100 kg at baseline (n=127), at one year): 9.4%
- mean decrease in weight ([5]; subjects >100 kg at baseline (n=127), at two years): 9.9%
- mean decrease in weight ([5]; subset of subjects weighing >100 kg at baseline (n=127), overall, mean daily dose 873.5 mg/day, mean duration of dosing 881.8 days): 8.4%
